Measured values taken from patent US6617326B2 (dated 2003).

| melting point [°C] | SMILES |
| --- | --- |
| 156 to 159 | CC(C)(F)c1cnn2c(-c3ccc(F)c(-c4ccc(F)cc4C#N)c3)cnc2n1 |
| 200 to 201 | N#Cc1ccc(F)cc1-c1cc(-c2cnc3nc(C(F)(F)F)cnn23)ccc1F |
| 215 | CC(C)(O)c1cnn2c(-c3ccc(F)c(-c4ccc(F)cc4C#N)c3)cnc2n1 |
| 175 | CC(C)(O)c1cnn2c(-c3cccc(-c4ccc(F)cc4C#N)c3)cnc2n1 |
